Common to all, as to format: functional
The nature of assay [1]: Antioxidant activity against copper-induced lipid peroxidation in human LDL assessed as inhibition of malondialdehyde formation.
Assay [2] can be described thus: Antioxidant activity against copper-induced lipid peroxidation in human LDL assessed as inhibition of malondialdehyde formation at 10 uM relative to control. On the set-up: scale not given: the % may be the effect or the level left.
Assay [3] can be described thus: Antioxidant activity against copper-induced lipid peroxidation in human LDL assessed as inhibition of malondialdehyde formation at 5 uM relative to control. Further details: scale not given: the % may be the effect or the level left.
A short description of assay [4]: Antioxidant activity against copper-induced lipid peroxidation in human LDL assessed as inhibition of malondialdehyde formation at 100 uM relative to control. On the set-up: scale not given: the % may be the effect or the level left.
A short description of assay [5]: Antioxidant activity against copper-induced lipid peroxidation in human LDL assessed as inhibition of malondialdehyde formation at 20 uM relative to control. Further details: scale not given: the % may be the effect or the level left.
Assay [6] in a line: Antioxidant activity against copper-induced lipid peroxidation in human LDL assessed as inhibition of malondialdehyde formation at 2 uM relative to control. Further details: scale not given: the % may be the effect or the level left.
Assay [7] is described as follows: Antioxidant activity against copper-induced lipid peroxidation in human LDL assessed as inhibition of malondialdehyde formation at 200 uM relative to control. Further details: scale not given: the % may be the effect or the level left.
The nature of assay [8]: Antioxidant activity against copper-induced lipid peroxidation in human LDL assessed as inhibition of malondialdehyde formation at 50 uM relative to control. Further details: scale not given: the % may be the effect or the level left.

A word on the IC50: it is the concentration that inhibits the measured activity by half. `Cn1cncc1CC(NC(=O)CCN[C@@H]1[C@@H](O)[C@H]2O[C@H]3[C@H](O)[C@@H](O)[C@@H](O[C@H]4[C@H](O)[C@@H](O)[C@@H](O[C@H]5[C@H](O)[C@@H](O)[C@@H](O[C@H]6[C@H](O)[C@@H](O)[C@@H](O[C@H]7[C@H](O)[C@@H](O)[C@@H](O[C@H]8[C@H](O)[C@@H](O)[C@@H](O[C@@H]1[C@@H](CO)O2)O[C@@H]8CO)O[C@@H]7CO)O[C@@H]6CO)O[C@@H]5CO)O[C@@H]4CO)O[C@@H]3CO)C(=O)O` (some centres not stated): the IC50 in assay [1] was found to be 41.6 µM.

`OC[C@H]1O[C@@H]2O[C@H]3[C@H](O)[C@@H](O)[C@@H](O[C@H]4[C@H](O)[C@@H](O)[C@@H](O[C@H]5[C@H](O)[C@@H](O)[C@@H](O[C@H]6[C@H](O)[C@@H](O)[C@@H](O[C@H]7[C@H](O)[C@@H](O)[C@@H](O[C@H]8[C@H](O)[C@@H](O)[C@@H](O[C@H]1[C@H](O)[C@H]2O)O[C@@H]8CO)O[C@@H]7CO)O[C@@H]6CO)O[C@@H]5CO)O[C@@H]4CO)O[C@@H]3CO`: the Activity in assay [2] stood at 0.65%; in assay [3], 0.38%; in assay [4], 6.94%; in assay [5] it was 1.26%; in assay [6], 0.11%; in assay [7], 10.7%. Further, the Activity in assay [8] stood at 3.87%.

Take `O=C(CCN[C@@H]1[C@@H](O)[C@H]2O[C@H]3[C@H](O)[C@@H](O)[C@@H](O[C@H]4[C@H](O)[C@@H](O)[C@@H](O[C@H]5[C@H](O)[C@@H](O)[C@@H](O[C@H]6[C@H](O)[C@@H](O)[C@@H](O[C@H]7[C@H](O)[C@@H](O)[C@@H](O[C@H]8[C@H](O)[C@@H](O)[C@@H](O[C@@H]1[C@@H](CO)O2)O[C@@H]8CO)O[C@@H]7CO)O[C@@H]6CO)O[C@@H]5CO)O[C@@H]4CO)O[C@@H]3CO)NC(Cc1cnc[nH]1)C(=O)O` (some centres not stated): the IC50 in assay [1] is 23.4 µM.

Turning to `Cn1cncc1C[C@H](NC(=O)CCN)C(=O)O`, the Activity in assay [2] is 1.05%; in assay [3], 0.51%; in assay [4], 12.2%; in assay [5], 2.14%; in assay [6] it was 0.23%; in assay [7] it was 18.7%. For the same compound, in assay [8], the Activity was 8.55%.

For `Cn1cncc1CC(NC(=O)CCNC[C@H]1O[C@@H]2O[C@H]3[C@H](O)[C@@H](O)[C@@H](O[C@H]4[C@H](O)[C@@H](O)[C@@H](O[C@H]5[C@H](O)[C@@H](O)[C@@H](O[C@H]6[C@H](O)[C@@H](O)[C@@H](O[C@H]7[C@H](O)[C@@H](O)[C@@H](O[C@H]8[C@H](O)[C@@H](O)[C@@H](O[C@H]1[C@H](O)[C@H]2O)O[C@@H]8CO)O[C@@H]7CO)O[C@@H]6CO)O[C@@H]5CO)O[C@@H]4CO)O[C@@H]3CO)C(=O)O` (some centres not stated), the half-inhibitory concentration (IC50) in assay [1] worked out at 88.7 µM.

The values are drawn from ChEMBL document CHEMBL1149781, “New glycosidic derivatives of histidine-containing dipeptides with antioxidant properties and resistant to carnosinase activity” (Eur J Med Chem, 2008).
